In patent US4812443A, “Methods for enhancing differentiation and proliferation of hematopoietic progenitor cells” (Kuraray Co., Ltd., priority 1984, dated 1989):

System: extracted trachea
Assay: Peripheral action, extracted trachea of guinea pigs
Set-up: species or system guinea pig (Hartley-strain)
Conditions: up to 10^-4 g/ml, 37° C.
Source text: Since the dolichol is a water-insoluble oily liquid, it was used as a solution in sesame oil in the case of oral administration, and as a suspension in a nonionic surfactant (HCO-60, a trade name for a product of Nikko Chemical Co., Ltd.) in the case of intraperitoneal administration and in an in vitro test in the following experiment.
In the following experiment, ddY-strain male mice, Wistar-strain male rats (Shizuoka Laboratory Animal Center), Japanese white male rabbits (Carely) and Hartley-strain male guinea pigs (Clea Japan Inc.) were used. The animals were kept under conditions including a temperature of 23±1° C., a humidity of 55±10%, an illuminating time (7:00 am to 9.00 pm) and 15 ventilations per hour. The mice and rats were fed with solid feeds MF (a product of Oriental Yeast Co., Ltd.) and the guinea pigs and rabbits were fed with solid feeds GM-3 and RM-1 (Funabashi Farm Co.). They were allowed to take tap water freely. The animals were preliminarily kept for more than one week, and those which were healthy in general conditions were used in the experiments.
Hartley-strain male guinea pigs (350-400 g), 3 per group, were used. The extracted trachea was suspended in Locke-Ringer solution at 37° C. through which air was introduced. The contraction of the trachea was recorded in the same way as in the case of the extracted ileum. […]

Question: Which “Antagonistic action against isoproterenol” value (extracted trachea) does the source give for dolichol here?
Answer: The value was “nor antagonistic action”.

Question: What about the “Direct action on extracted trachea” value of the same substance?
Answer: The value was “no direct action”.
